Results as given in patent US20260356810A1, “NOVEL PIPERAZINE-BASED SULFONAMIDES AND THEIR USE AS NEUROPROTECTIVE AND/OR NEURORESTORATIVE AGENTS” (GENECODE, priority 2022, published 2026).
Like-named read-outs stand apart in the source and are kept apart here.

Target: T1, GFRα1-RET (Homo sapiens, UniProt P56159)
T1 construct: expressed in transfected cells; host or cells: MG87 murine fibroblast
Assay: Luciferase assay: activation of Elk1 signaling in reporter-gene cells expressing GFRα1-RET (MG87 murine fibroblast stably transfected with PathDetect Elk-1, GFRα1, and RET)
Assay type: cell-based
Experimental: The purpose of this experiment was to evaluate the GFRα1-RET activity of the compounds 001-060 according to the invention.
The compounds were tested for their activating activity of Elk1 signaling using the previously developed reporter-gene-based system in cells expressing GFRα1-RET (MG87 murine fibroblast stably transfected with PathDetect Elk-1, GFRα1, and RET) disclosed in Sidorova, Y. A. et al.: “Persephin signaling through GFRα1: The potential for the treatment of Parkinson's disease.” Molecular and Cellular Neuroscience, July 2010, Vol. 44, pp. 223-232. DOI: 10.1016/j.mcn.2010.03.009. For EC50 determination, a dose-response test was performed using 6 concentrations of each tested compound. Dose-response curves were fitted using the sigmoidal dose-response (variable slope) analysis in GraphPad Prism program (Graph Pad Inc) and EC50 of agonist/activator activity was calculated. Dose-response experiments were all performed in duplicate, two times independently.
The compounds were tested for their activating activity of Elk1 signaling using the same materials and methods than for the compounds according to the invention (Example 2 herein, section “Materials and methods”).

[1] = Table 4, MG87 murine fibroblasts with PathDetect Elk-1, GFRα1, RET, 6 concentrations, duplicate, two times independently, agonist/activator activity, read-out: Luciferase Assay EC50
[2] = Table 6, comparison with comparative compounds, values for 001, 009, 010 reported from Table 4, MG87 GFRα1-RET cells, read-out: Luciferase Assay EC50
[3] = text statement on Table 6 results, GFRα1-RET luciferase assay, read-out: EC50

T1 sequence (P56159 25-429 limits assumed): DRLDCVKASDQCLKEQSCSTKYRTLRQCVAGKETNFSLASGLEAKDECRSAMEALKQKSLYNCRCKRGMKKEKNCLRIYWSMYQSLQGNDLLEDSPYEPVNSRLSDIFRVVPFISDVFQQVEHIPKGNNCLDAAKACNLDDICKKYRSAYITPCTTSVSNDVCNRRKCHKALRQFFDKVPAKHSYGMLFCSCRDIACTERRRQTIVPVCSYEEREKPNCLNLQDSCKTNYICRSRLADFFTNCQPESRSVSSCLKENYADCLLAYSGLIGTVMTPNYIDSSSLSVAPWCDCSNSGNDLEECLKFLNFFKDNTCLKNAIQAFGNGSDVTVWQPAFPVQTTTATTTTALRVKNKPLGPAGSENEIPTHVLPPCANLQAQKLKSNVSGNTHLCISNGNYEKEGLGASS
T1 sequence (P07949 29-1114 partner): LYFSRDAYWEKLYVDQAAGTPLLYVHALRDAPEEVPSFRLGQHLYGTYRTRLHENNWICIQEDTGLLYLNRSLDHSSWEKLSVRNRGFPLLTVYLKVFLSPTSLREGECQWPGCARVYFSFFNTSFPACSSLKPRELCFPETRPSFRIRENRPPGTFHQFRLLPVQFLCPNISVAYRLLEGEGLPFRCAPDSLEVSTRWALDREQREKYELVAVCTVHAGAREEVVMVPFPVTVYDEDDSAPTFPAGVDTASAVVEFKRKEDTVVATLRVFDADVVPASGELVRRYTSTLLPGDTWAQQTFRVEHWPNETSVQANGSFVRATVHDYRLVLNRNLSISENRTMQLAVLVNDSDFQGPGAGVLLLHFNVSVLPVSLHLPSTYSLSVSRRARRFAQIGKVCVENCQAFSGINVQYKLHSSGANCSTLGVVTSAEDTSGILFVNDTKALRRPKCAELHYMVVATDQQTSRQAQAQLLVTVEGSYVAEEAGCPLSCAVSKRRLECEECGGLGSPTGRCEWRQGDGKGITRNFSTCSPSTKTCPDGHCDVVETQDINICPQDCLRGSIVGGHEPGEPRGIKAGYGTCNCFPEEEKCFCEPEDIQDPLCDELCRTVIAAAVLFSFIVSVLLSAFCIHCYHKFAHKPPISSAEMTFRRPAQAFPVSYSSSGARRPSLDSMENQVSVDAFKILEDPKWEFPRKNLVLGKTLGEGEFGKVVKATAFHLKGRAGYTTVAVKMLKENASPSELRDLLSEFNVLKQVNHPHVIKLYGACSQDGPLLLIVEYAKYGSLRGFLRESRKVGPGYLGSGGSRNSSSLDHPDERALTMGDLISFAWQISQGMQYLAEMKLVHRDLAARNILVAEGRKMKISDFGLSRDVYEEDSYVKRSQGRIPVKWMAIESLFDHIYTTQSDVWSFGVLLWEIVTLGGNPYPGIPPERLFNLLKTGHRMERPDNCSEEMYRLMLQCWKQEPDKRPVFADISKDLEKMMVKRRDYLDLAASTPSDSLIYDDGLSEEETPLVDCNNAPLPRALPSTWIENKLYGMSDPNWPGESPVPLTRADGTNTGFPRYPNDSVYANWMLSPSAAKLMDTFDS

| EC50 [1] | EC50 [2] | EC50 [3] | SMILES |
| --- | --- | --- | --- |
| < 1 µM | – | – | COc1ccc(S(=O)(=O)N2CCN(CC(C)c3ccc(F)cc3)CC2)cc1N1CCN(C(=O)c2ccc(F)cc2Cl)CC1 (racemic) [Compound 054, (2-chloro-4-fluoro-phenyl)-[4-[2-methoxy-5-[4-[rac-(2R)-2-(4-fluorophenyl)propyl]piperazin-1-yl]sulfonyl-phenyl]piperazin-1-yl]methanone] |
| 10 to 50 µM | – | – | COc1ccc(S(=O)(=O)N2CCCC2)cc1N1CCN(C(=O)c2ccc(Cl)cc2Cl)CC1 [Compound 003, (2,4-dichlorophenyl)-[4-(2-methoxy-5-pyrrolidin-1-ylsulfonyl-phenyl)piperazin-1-yl]methanone] |
| 5 to 10 µM | – | – | COc1ccc(S(=O)(=O)N2CCC(Cc3ccccc3)CC2)cc1N1CCN(C(=O)c2ncc(F)cc2Cl)CC1 [Compound 008, [4-[5-[(4-benzyl-1-piperidyl)sulfonyl]-2-methoxy-phenyl]piperazin-1-yl]-(3-chloro-5-fluoro-2-pyridyl)methanone] |
| 1 to 5 µM | 1 to 5 µM | < 10 µM | COc1ccc(S(=O)(=O)N2CCC(Cc3ccccc3)CC2)cc1N1CCN(C(=O)c2ccc(F)cc2C(F)F)CC1 [Compound 010, [4-[5-[(4-benzyl-1-piperidyl)sulfonyl]-2-methoxy-phenyl]piperazin-1-yl]-[2-(difluoromethyl)-4-fluoro-phenyl]methanone] |
| 5 to 10 µM | – | – | COc1ccc(S(=O)(=O)N2CCC(O)(Cc3ccccc3)CC2)cc1N1CCN(C(=O)c2ccc(F)cc2Cl)CC1 [Compound 012, [4-[5-[(4-benzyl-4-hydroxy-1-piperidyl)sulfonyl]-2-methoxy-phenyl]piperazin-1-yl]-(2-chloro-4-fluoro-phenyl)methanone] |
| 5 to 10 µM | – | – | COc1ccc(S(=O)(=O)N(C)CC2CCC2)cc1N1CCN(C(=O)c2ccc(F)cc2Cl)CC1 [Compound 014, 3-[4-(2-chloro-4-fluoro-benzoyl)piperazin-1-yl]-N-(cyclobutylmethyl)-4-methoxy-N-methyl-benzenesulfonamide] |
| 10 to 50 µM | – | – | COc1ccc(S(=O)(=O)N(C)Cc2ccccc2)cc1N1CCN(C(=O)c2ccc(F)cc2Cl)CC1 [Compound 019, N-benzyl-3-[4-(2-chloro-4-fluoro-benzoyl)piperazin-1-yl]-4-methoxy-N-methyl-benzenesulfonamide] |
| 5 to 10 µM | – | – | COc1ccc(S(=O)(=O)N(C)Cc2ccc(F)cc2)cc1N1CCN(C(=O)c2ccc(F)cc2Cl)CC1 [Compound 021, 3-[4-(2-chloro-4-fluoro-benzoyl)piperazin-1-yl]-N-[(4-fluorophenyl)methyl]-4-methoxy-N-methyl-benzenesulfonamide] |

Second part, the compound before the results:

| SMILES | EC50 [1] | EC50 [2] | EC50 [3] |
| --- | --- | --- | --- |
| COc1ccc(S(=O)(=O)N2CCN(CC(C)c3ccccc3)CC2)cc1N1CCN(C(=O)c2ccc(F)cc2Cl)CC1 (racemic) [Compound 053, (2-chloro-4-fluoro-phenyl)-[4-[2-methoxy-5-[4-[rac-(2R)-2-phenylpropyl]piperazin-1-yl]sulfonyl-phenyl]piperazin-1-yl]methanone] | 1 to 5 µM | – | – |
| CCN(CC)S(=O)(=O)c1ccc(OC)c(N2CCN(C(=O)c3ccc(F)cc3Cl)CC2)c1 [Compound 001, 3-[4-(2-chloro-4-fluoro-benzoyl)piperazin-1-yl]-N,N-diethyl-4-methoxy-benzenesulfonamide] | 5 to 10 µM | 5 to 10 µM | < 10 µM |
| CCN(CC)S(=O)(=O)c1ccc(OC)c(N2CCN(C(=O)c3cc(F)c(F)cc3Cl)CC2)c1 [Compound 002, 3-[4-(2-chloro-4,5-difluoro-benzoyl)piperazin-1-yl]-N,N-diethyl-4-methoxy-benzenesulfonamide] | 5 to 10 µM | – | – |
| COc1ccc(S(=O)(=O)N2CCCC2)cc1N1CCN(C(=O)c2ccc(F)cc2Cl)CC1 [Compound 004, (2-chloro-4-fluoro-phenyl)-[4-(2-methoxy-5-pyrrolidin-1-ylsulfonyl-phenyl)piperazin-1-yl]methanone] | 1 to 5 µM | – | – |
| CCCN(C)S(=O)(=O)c1ccc(OC)c(N2CCN(C(=O)c3cc(F)c(F)cc3Cl)CC2)c1 [Compound 005, 3-[4-(2-chloro-4,5-difluoro-benzoyl)piperazin-1-yl]-4-methoxy-N-methyl-N-propyl-benzenesulfonamide] | 1 to 5 µM | – | – |
| CCCN(C)S(=O)(=O)c1ccc(OC)c(N2CCN(C(=O)c3ccc(F)cc3C(F)F)CC2)c1 [Compound 006, 3-[4-[2-(difluoromethyl)-4-fluoro-benzoyl]piperazin-1-yl]-4-methoxy-N-methyl-N-propyl-benzenesulfonamide] | 1 to 5 µM | – | – |
| COc1ccc(S(=O)(=O)N2CCC(Cc3ccccc3)CC2)cc1N1CCN(C(=O)c2ccccc2C(F)F)CC1 [Compound 007, [4-[5-[(4-benzyl-1-piperidyl)sulfonyl]-2-methoxy-phenyl]piperazin-1-yl]-[2-(difluoromethyl)phenyl]methanone] | 1 to 5 µM | – | – |
| COc1ccc(S(=O)(=O)N2CCC(Cc3ccccc3)CC2)cc1N1CCN(C(=O)c2cc(F)c(F)cc2Cl)CC1 [Compound 009, [4-[5-[(4-benzyl-1-piperidyl)sulfonyl]-2-methoxy-phenyl]piperazin-1-yl]-(2-chloro-4,5-difluoro-phenyl)methanone] | < 1 µM | < 1 µM | < 10 µM |
| COc1ccc(S(=O)(=O)N2CCC(O)(c3ccccc3)CC2)cc1N1CCN(C(=O)c2ccc(F)cc2Cl)CC1 [Compound 011, (2-chloro-4-fluoro-phenyl)-[4-[5-[(4-hydroxy-4-phenyl-1-piperidyl)sulfonyl]-2-methoxy-phenyl]piperazin-1-yl]methanone] | 5 to 10 µM | – | – |
| COc1ccc(S(=O)(=O)N2CCN(Cc3ccccc3)CC2)cc1N1CCN(C(=O)c2ccc(F)cc2Cl)CC1 [Compound 013, [4-[5-(4-benzylpiperazin-1-yl)sulfonyl-2-methoxy-phenyl]piperazin-1-yl]-(2-chloro-4-fluoro-phenyl)methanone] | 5 to 10 µM | – | – |
| COc1ccc(S(=O)(=O)N(C)CC2CCCCC2)cc1N1CCN(C(=O)c2ccc(F)cc2Cl)CC1 [Compound 015, 3-[4-(2-chloro-4-fluoro-benzoyl)piperazin-1-yl]-N-(cyclohexylmethyl)-4-methoxy-N-methyl-benzenesulfonamide] | 5 to 10 µM | – | – |
| COc1ccc(S(=O)(=O)N(C)C2CCCC2)cc1N1CCN(C(=O)c2ccc(F)cc2Cl)CC1 [Compound 016, 3-[4-(2-chloro-4-fluoro-benzoyl)piperazin-1-yl]-N-cyclopentyl-4-methoxy-N-methyl-benzenesulfonamide] | 5 to 10 µM | – | – |
| COc1ccc(S(=O)(=O)N(C)C2CCCCC2)cc1N1CCN(C(=O)c2ccc(F)cc2Cl)CC1 [Compound 017, 3-[4-(2-chloro-4-fluoro-benzoyl)piperazin-1-yl]-N-cyclohexyl-4-methoxy-N-methyl-benzenesulfonamide] | 1 to 5 µM | – | – |
| COc1ccc(S(=O)(=O)N(C)C2(C)COC2)cc1N1CCN(C(=O)c2ccc(F)cc2Cl)CC1 [Compound 018, 3-[4-(2-chloro-4-fluoro-benzoyl)piperazin-1-yl]-4-methoxy-N-methyl-N-(3-methyloxetan-3-yl)benzenesulfonamide] | 10 to 50 µM | – | – |
| COc1ccc(S(=O)(=O)N(C)Cc2cccc(Cl)c2)cc1N1CCN(C(=O)c2ccc(F)cc2Cl)CC1 [Compound 020, 3-[4-(2-chloro-4-fluoro-benzoyl)piperazin-1-yl]-N-[(3-chlorophenyl)methyl]-4-methoxy-N-methyl-benzenesulfonamide] | 1 to 5 µM | – | – |
